According to BindingDB's records for doi:10.1016/j.chembiol.2004.12.010 (National Institutes of Health, 2005):
Several values for one entry are separate records, joined by “and”; a condition that tells them apart may be missing. Identical values can stand only once.

Tests used:
Test in all cases: Binding Assay
Adenosine receptor A1 = molecular target: T1, Adenosine receptor A1 (Homo sapiens, UniProt P30542)
T1 sequence (P30542 whole entry): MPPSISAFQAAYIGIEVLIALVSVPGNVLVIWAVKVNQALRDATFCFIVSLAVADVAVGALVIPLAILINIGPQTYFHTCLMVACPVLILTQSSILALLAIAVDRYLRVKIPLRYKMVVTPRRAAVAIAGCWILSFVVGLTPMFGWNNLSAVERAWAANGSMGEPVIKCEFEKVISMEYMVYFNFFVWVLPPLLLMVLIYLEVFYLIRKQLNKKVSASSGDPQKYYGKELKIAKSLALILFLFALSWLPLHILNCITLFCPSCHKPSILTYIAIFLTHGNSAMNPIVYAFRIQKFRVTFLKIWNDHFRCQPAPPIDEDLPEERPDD
Text: (§1) Binding affinity of ligand at human adenosine receptors expressed in CHO cell.

Adenosine receptor A2a [1] = molecular target: T2, Adenosine receptor A2a (Homo sapiens, UniProt P29274)
T2 sequence (P29274 whole entry): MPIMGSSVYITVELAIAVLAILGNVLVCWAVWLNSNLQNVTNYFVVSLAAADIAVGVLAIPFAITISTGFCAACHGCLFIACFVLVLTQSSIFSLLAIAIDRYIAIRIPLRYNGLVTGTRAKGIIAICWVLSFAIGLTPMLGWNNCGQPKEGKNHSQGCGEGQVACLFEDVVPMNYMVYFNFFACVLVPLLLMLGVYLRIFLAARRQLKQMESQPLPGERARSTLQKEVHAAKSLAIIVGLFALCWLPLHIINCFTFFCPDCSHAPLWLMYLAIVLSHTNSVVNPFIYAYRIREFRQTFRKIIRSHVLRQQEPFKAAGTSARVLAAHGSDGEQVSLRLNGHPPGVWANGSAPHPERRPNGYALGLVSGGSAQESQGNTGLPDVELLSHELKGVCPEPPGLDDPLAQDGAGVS
Text: as §1

Adenosine receptor A2b = molecular target: T3, Adenosine receptor A2b (Homo sapiens, UniProt P29275)
T3 sequence (P29275 whole entry): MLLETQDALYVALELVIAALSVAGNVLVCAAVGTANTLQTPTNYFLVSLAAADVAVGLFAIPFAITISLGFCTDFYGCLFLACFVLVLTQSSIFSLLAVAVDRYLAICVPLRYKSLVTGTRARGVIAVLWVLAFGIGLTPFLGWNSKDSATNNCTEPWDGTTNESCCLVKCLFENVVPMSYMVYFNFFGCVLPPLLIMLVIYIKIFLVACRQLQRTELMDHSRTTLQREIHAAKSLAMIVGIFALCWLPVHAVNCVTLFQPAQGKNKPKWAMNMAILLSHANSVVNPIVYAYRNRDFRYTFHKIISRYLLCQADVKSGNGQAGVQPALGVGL
Text: as §1

Adenosine receptor A3 = molecular target: T4, Adenosine receptor A3 (Homo sapiens, UniProt P0DMS8)
T4 sequence (P0DMS8 whole entry): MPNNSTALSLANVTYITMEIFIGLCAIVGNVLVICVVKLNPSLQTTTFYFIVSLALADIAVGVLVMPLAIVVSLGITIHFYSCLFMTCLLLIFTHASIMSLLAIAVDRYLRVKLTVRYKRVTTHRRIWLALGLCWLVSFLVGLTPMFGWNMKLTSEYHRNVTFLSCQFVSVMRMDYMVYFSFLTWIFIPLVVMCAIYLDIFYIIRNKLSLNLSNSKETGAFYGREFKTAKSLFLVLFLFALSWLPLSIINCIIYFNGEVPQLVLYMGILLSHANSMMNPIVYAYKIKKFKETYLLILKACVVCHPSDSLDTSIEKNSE
Text: as §1

Adenosine receptor A2a [2] = molecular target: T2, Adenosine receptor A2a; conditions: pH 7.4; 25 °C
Text: Binding affinity of ligand at WT and mutant human A2A ARs expressed in COS7 cell.

## NNC(=O)[C@H]1O[C@@H](n2cnc3c(N)ncnc32)[C@H](O)[C@@H]1O
Adenosine receptor A1
  Ki: 0.171 µM
Adenosine receptor A2a [1]
  Ki: 2.23 µM
Adenosine receptor A2b
  EC50: 12 µM
Adenosine receptor A3
  Ki: 0.378 µM

## CCNC(=O)[C@H]1O[C@@H](n2cnc3c(N=C(N)N)ncnc32)[C@H](O)[C@@H]1O
Adenosine receptor A2a [2]
  Ki: 4.51 µM and 5.68 µM and 0.773 µM and 1.14 µM
Adenosine receptor A1
  Ki: 0.007 µM
Adenosine receptor A2a [1]
  Ki: 0.628 µM
Adenosine receptor A2b
  EC50: 0.0545 µM
Adenosine receptor A3
  Ki: 0.0051 µM

## NCCNC(=O)[C@H]1O[C@@H](n2cnc3c(N)ncnc32)[C@H](O)[C@@H]1O [5'-N-[(2-AMINO)ETHYL CARBOXAMIDO] ADENOSINE]
Adenosine receptor A1
  Ki: 0.245 µM
Adenosine receptor A2b
  EC50: 15.6 µM

## CNC(=O)[C@H]1O[C@@H](n2cnc3c(NCCN)ncnc32)[C@H](O)[C@@H]1O [Adenosine analog, 5]
Adenosine receptor A2a [2]
  Ki: > 100 µM
Adenosine receptor A1
  Ki: 0.775 µM
Adenosine receptor A2a [1]
  Ki: > 100 µM
Adenosine receptor A2b
  EC50: > 10 µM
Adenosine receptor A3
  Ki: 24.6 µM

## NCCCNC(=O)[C@H]1O[C@@H](n2cnc3c(N)ncnc32)[C@H](O)[C@@H]1O [Adenosine analog, 8]
Adenosine receptor A1
  Ki: > 100 µM
Adenosine receptor A2a [1]
  Ki: > 10 µM
Adenosine receptor A2b
  EC50: > 10 µM
Adenosine receptor A3
  Ki: > 10 µM

## NCCCCNC(=O)[C@H]1O[C@@H](n2cnc3c(N)ncnc32)[C@H](O)[C@@H]1O [Adenosine analog, 9]
Adenosine receptor A2a [2]
  Ki: > 100 µM and 55.2 µM and 48.1 µM
Adenosine receptor A1
  Ki: > 100 µM
Adenosine receptor A2a [1]
  Ki: > 100 µM
Adenosine receptor A2b
  EC50: > 10 µM
Adenosine receptor A3
  Ki: > 10 µM

## NCCCCCNC(=O)[C@H]1O[C@@H](n2cnc3c(N)ncnc32)[C@H](O)[C@@H]1O [Adenosine analog, 10]
Adenosine receptor A2a [2]
  Ki: > 100 µM and 124 µM
Adenosine receptor A1
  Ki: > 100 µM
Adenosine receptor A2a [1]
  Ki: > 100 µM
Adenosine receptor A2b
  EC50: > 10 µM
Adenosine receptor A3
  Ki: > 100 µM

## Nc1ncnc2c1ncn2[C@@H]1O[C@H](C(=O)NCCO)[C@@H](O)[C@H]1O [Adenosine analog, 11]
Adenosine receptor A2b
  EC50: 0.942 µM

## Cc1ccccc1CNc1ncnc2c1ncn2[C@@H]1O[C@H](C(=O)NN)[C@@H](O)[C@H]1O [Adenosine analog, 12]
Adenosine receptor A1
  Ki: > 10 µM
Adenosine receptor A2a [1]
  Ki: > 10 µM
Adenosine receptor A2b
  EC50: > 100 µM
Adenosine receptor A3
  Ki: 0.394 µM

## CCNC(=O)[C@H]1O[C@@H](n2cnc3c(NCc4ccccc4C)ncnc32)[C@H](O)[C@@H]1O [Adenosine analog, 13]
Adenosine receptor A1
  Ki: 0.106 µM
Adenosine receptor A2a [1]
  Ki: 5.43 µM
Adenosine receptor A2b
  EC50: > 1 µM
Adenosine receptor A3
  Ki: 0.0788 µM

## Cc1ccccc1CNc1ncnc2c1ncn2[C@@H]1O[C@H](C(=O)NCCN)[C@@H](O)[C@H]1O [Adenosine analog, 14]
Adenosine receptor A1
  Ki: > 10 µM
Adenosine receptor A2a [1]
  Ki: 55.9 µM
Adenosine receptor A2b
  EC50: > 1 µM
Adenosine receptor A3
  Ki: > 10 µM

## Cc1ccccc1CNc1ncnc2c1ncn2[C@@H]1O[C@H](C(=O)NCCO)[C@@H](O)[C@H]1O [Adenosine analog, 15]
Adenosine receptor A1
  Ki: 0.368 µM
Adenosine receptor A2a [1]
  Ki: > 10 µM
Adenosine receptor A2b
  EC50: 3.72 µM
Adenosine receptor A3
  Ki: 1.64 µM

## Cc1ccccc1CNc1ncnc2c1ncn2[C@@H]1O[C@H](CO)[C@@H](O)[C@H]1O [Adenosine analog, 16]
Adenosine receptor A1
  Ki: 0.0393 µM
Adenosine receptor A2a [1]
  Ki: 0.764 µM
Adenosine receptor A3
  Ki: 0.0472 µM

## CNc1nc(N)nc2c1ncn2[C@@H]1O[C@H](CO)[C@@H](O)[C@H]1O [Adenosine analog, 17]
Adenosine receptor A2a [2]
  Ki: > 100 µM
Adenosine receptor A1
  Ki: 0.484 µM
Adenosine receptor A2a [1]
  Ki: > 10 µM
Adenosine receptor A2b
  EC50: > 10 µM
Adenosine receptor A3
  Ki: 0.039 µM

## CNc1nc(CN)nc2c1ncn2[C@@H]1O[C@H](CO)[C@@H](O)[C@H]1O [Adenosine analog, 18]
Adenosine receptor A2a [2]
  Ki: > 100 µM
Adenosine receptor A1
  Ki: > 10 µM
Adenosine receptor A2a [1]
  Ki: > 10 µM
Adenosine receptor A2b
  EC50: > 10 µM
Adenosine receptor A3
  Ki: 0.719 µM

## CNc1nc(C(=N)N)nc2c1ncn2[C@@H]1O[C@H](CO)[C@@H](O)[C@H]1O [Adenosine analog, 19]
Adenosine receptor A2a [2]
  Ki: > 100 µM
Adenosine receptor A1
  Ki: > 10 µM
Adenosine receptor A2a [1]
  Ki: > 10 µM
Adenosine receptor A2b
  EC50: > 10 µM
Adenosine receptor A3
  Ki: 2.73 µM
